# Test system: muscles (soleus muscle) of Tg23 mice
# Test: Experimental Example 3: glucose (2-deoxy-D-glucose) intake of soleus muscles
# Format: in vivo, mouse
# Details: isolated soleus muscles of WT and Tg mice incubated in KRB buffer with vs without insulin, 10 minutes at 30° C.
# Protocol: Mice were sacrificed, and extensor digitorum longus (EDL) muscles and soleus muscles were quickly removed and processed. Both ends of each of the muscles were tied with suture (silk 4-0), and mounted on an incubation apparatus. First, the muscles were preincubated for 20 minutes in 6 ml of Krebs-Ringer bicarbonate (KRB) buffer (117 mM NaCl, 4.7 mM KCl, 2.5 mM CaCl2, 1.2 mM KH2PO4, 1.2 mM MgSO4, 24.6 mM NaHCO3, pH 7.5) containing 2 mM pyruvate. Then, the muscles were incubated in KRB buffer in presence or absence of insulin.
# Immediately after muscle incubation, the muscles were transferred to KRB buffer containing 1 mM 2-deoxy-D-[^3H]glucose (1.5 μCi/ml) and 7 mM D-[^14C]mannitol (0.3 μCi/ml) (PerkinElmer Life Sciences) at 30° C., and incubated again for 10 minutes. When using insulin, a buffer containing insulin was used for incubation in a similar manner.
# Glucose transport was terminated by dipping the muscles in KRB buffer containing 80 μmol/L cytochalasin B at 4° C., and then the muscles were frozen in liquid nitrogen. The muscles were weighed, and digested by incubating in 250 μl of 1 M NaOH at 80° C. for 10 minutes. Digests were neutralized with 250 μl of 1 M HCl. […] Radioactivity in aliquots of the digested muscle was determined by liquid scintillation counting for dual labels, and extracellular and intracellular spaces were calculated. […]
substance,measurement,value
insulin,amount of glucose intake of muscles in presence (+) of insulin,increased
